The subject of one data set is MDCK-MDR1 cells. Briefly: MDCK-MDR1 permeability assay. Conditions: MDCK-MDR1 cells. It counts as in vitro ADME. The method in brief:
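Receiver and donor compartments were analysed by LC-MS/MS after a 2 h incubation at 37 °C of 3 μM compound in HBSS on MDCK-MDR1 monolayers, run in both directions with Lucifer Yellow (100 μM) as integrity marker. Apparent permeability came from translocation rate, insert area and initial concentration; B→A/A→B Papp gave the efflux ratio, alongside percent recovery.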

Data set [1] addresses T1, human orexin-2 receptor (OX2R) (Homo sapiens, UniProt O43614).
T1 construct: expressed in transfected cells
T1 sequence (O43614 1-444): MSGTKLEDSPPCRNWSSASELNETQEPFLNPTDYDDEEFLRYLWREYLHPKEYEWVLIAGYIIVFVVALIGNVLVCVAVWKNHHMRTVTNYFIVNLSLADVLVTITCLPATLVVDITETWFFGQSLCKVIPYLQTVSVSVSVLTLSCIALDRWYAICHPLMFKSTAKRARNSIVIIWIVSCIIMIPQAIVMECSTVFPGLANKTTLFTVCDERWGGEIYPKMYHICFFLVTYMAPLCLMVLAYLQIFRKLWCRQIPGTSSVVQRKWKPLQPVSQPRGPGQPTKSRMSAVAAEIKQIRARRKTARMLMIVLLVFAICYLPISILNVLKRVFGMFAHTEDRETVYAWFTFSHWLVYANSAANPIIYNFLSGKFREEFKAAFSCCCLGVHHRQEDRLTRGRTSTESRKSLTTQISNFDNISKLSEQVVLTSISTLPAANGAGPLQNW
Briefly: Human OX2R IP1 assay. It counts as cell-based. The following applies: T-Rex CHO cells stably overexpressing human OX2R; IP1 accumulation; 1 hr at 37 degrees C; mean EC50. In a few lines:
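T-Rex CHO cells stably expressing human OX2R, doxycycline-induced (1 μg/mL) overnight, treated with compounds 1 h at 37 °C in pH 7.4 buffer with 50 mM LiCl. IP1 accumulation read by HTRF competitive immunoassay after 1 h at room temperature; agonist EC50 reported as mean ± S.E.M.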

The subject of a further data set is human hepatocytes. Briefly: Hepatocytes stability assay (human hepatocytes). It counts as in vitro ADME. The method in brief:
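Compound at 1 μM (0.1% DMSO) was incubated with cryopreserved pooled human hepatocytes, 1×10^6 cells/mL in Krebs-Henseleit buffer, at 37 °C, sampled up to 240 min. Parent depletion by LC-MS/MS; half-life from first-order decay gave CLint, scaled to hepatic clearance by well-stirred model (fu assumed 1) and extraction ratio.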

These results are taken from patent US12006330B2, “Substituted macrocyclic compounds and related methods of treatment” (Alkermes, Inc., priority 2020, dated 2024).

Each structure is given as a SMILES string. Bounds are passed on as bounds.

In general, EC50 refers to the concentration needed to bring the measured effect to its halfway point. Low readings indicate a more potent agent, high ones a less potent agent.

For `Cc1ccnc2c1[C@H]1CC[C@H](CC1)OCC1[C@@H](NS(=O)(=O)C3CCOC3)CCCN1C(=O)CO2` (stereo in doubt) [Compound 90], the “Efflux ratio (ER)” value in the data set with MDCK-MDR1 cells (Papp B→A divided by Papp A→B, 3 μM, 2 hours) turned out to be 48. The “Papp A → B (10^−6 cm/s)” value in the data set with MDCK-MDR1 cells (test compound 3 μM, 2 hours at 37 degrees C, apical to basolateral) was 0.62 10^−6 cm/s. This molecule returned an EC50 in data set [1] of less than 0.01 µM. The “CLint (μL/min/million cells)” value in the data set on human hepatocytes (cryopreserved human hepatocytes (pool of 50 mixed gender), 1 μM test compound, 1×10^6 cell/mL, 37 degrees C) is 11 μL/min/million cells. Besides, the “Extraction Ratio (ER)” value in the data set on human hepatocytes (human hepatocytes, scaled hepatic clearance divided by liver blood flow (well-stirred model, fu assumed unity)) was found to be 0.61.
